Columns and labels:
[1] = tested on: VIOTR; test: Post-emergence herbicidal action against VIOTR; type: in vivo, Viola tricolor; details: for pest or weed control at 20 g/ha: Viola tricolor, 504 h
Summary of the method: (§1)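 Weeds in sandy loam soil received a post-emergence spray at the one-leaf stage. Compounds were applied as WP or EC in water, 600 to 800 l/ha, with 0.2% wetting agent. Activity in % was judged visually after roughly 3 weeks against untreated plants.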

[2] = tested on: AVEFA; test: Pre-emergence herbicidal action against AVEFA; type: in vivo, Avena fatua; details: 80 g/ha, pre-emergence; for pest or weed control at 80 g/ha: Avena fatua, 504 h
Summary of the method: (§2)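 Visual rating at 3 weeks vs untreated pots; 0–100% scale, 100% = plants died. Treatment: aqueous WP/EC spray onto covering soil, 600–800 l/ha, 0.2% wetter, seeds in sandy loam.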

[3] = tested on: ALOMY; test: Post-emergence herbicidal action against ALOMY; type: in vivo, Alopecurus myosuroides; details: visual assessment about 3 weeks after treatment vs untreated controls
Description: (§3) Seeds of monocotyledonous and dicotyledonous weed and crop plants are laid out in sandy loam soil in wood-fiber pots, covered with soil and cultivated in a greenhouse under good growth conditions. 2 to 3 weeks after sowing, the test plants are treated at the one-leaf stage. The compounds of the invention, formulated in the form of wettable powders (WP) or as emulsion concentrates (EC), are then sprayed onto the green parts of the plants in the form of an aqueous suspension or emulsion at a water application rate equivalent to 600 to 800 l/ha, with addition of 0.2% wetting agent. After the test plants have been left to stand in the greenhouse under optimal growth conditions for about 3 weeks, the action of the preparations is assessed visually in comparison to untreated controls (herbicidal action in percent (%): 100% activity=the plants have died, 0% activity=like control plants). […] The tables below illustrate, in an illustrative manner, the post-emergence herbicidal action of the compounds of the invention, the herbicidal activity being stated in percent.

[4] = tested on: ECHCG; test: Post-emergence herbicidal action against ECHCG; type: in vivo, Echinochloa crus-galli; details: dosage 20 g/ha
Summary of the method: as §1

[5] = tested on: MATIN; test: Pre-emergence herbicidal action against MATIN; type: in vivo, Matricaria inodora; details: for pest or weed control at 20 g/ha / pest or weed control at 80 g/ha: Tripleurospermum inodorum, 504 h
Summary of the method: as §2

[6] = tested on: PHBPU; test: Post-emergence herbicidal action against PHBPU; type: in vivo, Pharbitis purpurea
Summary of the method: as §1

[7] = tested on: AMARE; test: Pre-emergence herbicidal action against AMARE; type: in vivo, Amaranthus retroflexus; details: for pest or weed control at 20 g/ha / pest or weed control at 80 g/ha: Amaranthus retroflexus, 504 h
Summary of the method: as §2

[8] = tested on: ALOMY; test: Pre-emergence herbicidal action against ALOMY; type: in vivo, Alopecurus myosuroides; details: pre-emergence; for pest or weed control at 80 g/ha / pest or weed control at 20 g/ha: Alopecurus myosuroides, 504 h; for pest or weed control at 80 g/ha / Pre-emergence action against ALOMY (herbicidal activity): scored visually after 3 weeks vs untreated controls (100% = plants have died, 0% = like control plants), 80 g/ha; for pest or weed control at 20 g/ha: scored visually after 3 weeks, 100% = plants have died, 0% = like control plants
Summary of the method: as §2

[9] = tested on: AMARE; test: Post-emergence herbicidal action against AMARE; type: in vivo, Amaranthus retroflexus; details: 20 g/ha, visual assessment about 3 weeks after treatment, 100% = plants have died, 0% = like control plants; for pest or weed control at 20 g/ha: Amaranthus retroflexus, 504 h
Summary of the method: as §1

[10] = tested on: ABUTH; test: Post-emergence herbicidal action against ABUTH; type: in vivo, Abutilon theophrasti; details: visual assessment about 3 weeks after treatment vs untreated controls
Summary of the method: as §1

[11] = tested on: ECHCG; test: Pre-emergence herbicidal action against ECHCG; type: in vivo, Echinochloa crus-galli; details: 80 g/ha; for pest or weed control at 80 g/ha: Echinochloa crus-galli, 504 h
Summary of the method: as §2

[12] = tested on: SETVI; test: Post-emergence herbicidal action against SETVI; type: in vivo, Setaria viridis; details: for pest or weed control at 5 g/ha / pest or weed control at 20 g/ha: Setaria viridis, 504 h
Summary of the method: as §1

[13] = tested on: VERPE; test: Post-emergence herbicidal action against VERPE; type: in vivo, Veronica persica; details: 20 g/ha; for pest or weed control at 20 g/ha: Veronica persica, 504 h
Description: as §3

[14] = tested on: VERPE; test: Pre-emergence herbicidal action against VERPE; type: in vivo, Veronica persica
Summary of the method: as §2

[15] = tested on: ABUTH; test: Pre-emergence herbicidal action against ABUTH; type: in vivo, Abutilon theophrasti; details: for pest or weed control at 80 g/ha: Abutilon theophrasti, 504 h; for pest or weed control at 80 g/ha / Pre-emergence action against ABUTH (herbicidal activity): scored visually after 3 weeks vs untreated controls (100% = plants have died, 0% = like control plants), 80 g/ha
Summary of the method: as §2

[16] = tested on: VIOTR; test: Pre-emergence herbicidal action against VIOTR; type: in vivo, Viola tricolor
Summary of the method: as §2

[17] = tested on: SETVI; test: Pre-emergence herbicidal action against SETVI; type: in vivo, Setaria viridis; details: dosage 80 g/ha
Summary of the method: as §2

[18] = tested on: MATIN; test: Post-emergence herbicidal action against MATIN; type: in vivo, Matricaria inodora; details: dosage 20 g/ha
Description: as §3

[19] = tested on: DIGSA; test: Pre-emergence herbicidal action against DIGSA; type: in vivo, Digitaria sanguinalis; details: Digitaria sanguinalis, 504 h
Summary of the method: as §2

[20] = tested on: DIGSA; test: Post-emergence herbicidal action against DIGSA; type: in vivo, Digitaria sanguinalis; details: Digitaria sanguinalis, 504 h
Summary of the method: as §1

[21] = Alopecurus myosuroides, 504 h, dosage 20 g/ha
[22] = Ipomoea purpurea, 504 h, dosage 20 g/ha
[23] = 20 g/ha, scored visually after 3 weeks vs untreated controls, 100% = plants have died, 0% = like control plants
[24] = 80 g/ha, scored visually after 3 weeks vs untreated controls, 100% = plants have died, 0% = like control plants
[25] = Abutilon theophrasti, 504 h, dosage 20 g/ha
[26] = Viola tricolor, 504 h, dosage 80 g/ha
[27] = 80 g/ha, scored visually after 3 weeks vs untreated controls (100% = plants have died, 0% = like control plants)

Row | SMILES | pest or weed control at 20 g/ha ([1]; 20 g/ha) [%] | pest or weed control at 20 g/ha [3, 21] [%] | pest or weed control at 80 g/ha ([5]; dosage 80 g/ha) [%] | pest or weed control at 20 g/ha [6, 22] [%] | pest or weed control at 20 g/ha [7, 23] [%] | pest or weed control at 80 g/ha [7, 24] [%] | pest or weed control at 80 g/ha [8] [%] | pest or weed control at 20 g/ha [9] [%] | pest or weed control at 20 g/ha [13] [%] | Post-emergence action against VIOTR in % ([1]; 20 g/ha) [%] | Post-emergence action against ALOMY in % ([3]; dosage 20 g/ha) [%] | Post-emergence action against ECHCG in % [4] [%] | Pre-emergence action against MATIN in % ([5]; dosage 80 g/ha) [%] | Post-emergence action against PHBPU in % ([6]; dosage 20 g/ha) [%] | Pre-emergence action against AMARE in % [7, 27] [%] | Pre-emergence action against ALOMY (herbicidal activity) [8] [%] | Post-emergence action at 20 g/ha against AMARE in % [9] [%] | Pre-emergence action against ABUTH (herbicidal activity) [15] [%] | Post-emergence action against ABUTH in % ([10]; dosage 20 g/ha) [%] | Pre-emergence action against VIOTR in % ([16]; dosage 80 g/ha) [%] | other results
1 | CNC(=O)c1c(Br)ccc(C(=O)Nc2nnnn2C)c1Br [Example 1-342] | 80 | 100 | 100 | 90 | 100 | 100 | 100 | 100 | 80 |  |  |  |  |  |  |  |  |  |  |  | pest or weed control at 80 g/ha [2]: 100%; pest or weed control at 5 g/ha ([3]; Alopecurus myosuroides, 504 h, dosage 5 g/ha): 90%; pest or weed control at 20 g/ha ([4]; Echinochloa crus-galli, 504 h): 80%; pest or weed control at 20 g/ha ([5]; dosage 20 g/ha): 80%; pest or weed control at 5 g/ha ([6]; Ipomoea purpurea, 504 h, dosage 5 g/ha): 80%; pest or weed control at 20 g/ha [8]: 90%; pest or weed control at 5 g/ha ([10]; Abutilon theophrasti, 504 h, dosage 5 g/ha): 90%; pest or weed control at 20 g/ha [10, 25]: 90%; pest or weed control at 80 g/ha [11]: 100%; pest or weed control at 5 g/ha ([12]; dosage 5 g/ha): 90%; pest or weed control at 20 g/ha ([12]; dosage 20 g/ha): 90%
2 | COc1ccc(C(=O)Nc2nnnn2C)c(Cl)c1C(=O)NC1CC1 [Example 1-356] | 90 | 80 | 100 | 80 | 100 | 100 | 100 | 100 | 90 |  |  |  |  |  |  |  |  |  |  |  | pest or weed control at 20 g/ha ([14]; Veronica persica, 504 h, dosage 20 g/ha): 100%; pest or weed control at 80 g/ha ([14]; Veronica persica, 504 h, dosage 80 g/ha): 100%; pest or weed control at 80 g/ha [15]: 100%; pest or weed control at 20 g/ha [10, 25]: 100%; pest or weed control at 80 g/ha [16, 26]: 100%
3 | CCn1nnnc1NC(=O)c1ccc(OC)c(C(=O)NC)c1Cl [Example 2-352] |  |  |  |  |  |  |  |  |  | 90 | 90 | 90 | 90 | 80 | 100 | 90 | 100 | 100 | 80 | 80 | Pre-emergence action against AVEFA in % [2]: 80%; Post-emergence action against ALOMY in % ([3]; dosage 5 g/ha): 80%; Pre-emergence action against MATIN in % ([5]; dosage 20 g/ha): 90%; Pre-emergence action against SETVI in % [17]: 100%; Post-emergence action against MATIN in % [18]: 80%; Pre-emergence action against AMARE in % [7, 23]: 100%; Pre-emergence action against VIOTR in % ([16]; dosage 20 g/ha): 80%; Pre-emergence action against ECHCG in % [11]: 80%; Post-emergence action against SETVI in % ([12]; dosage 5 g/ha): 80%; Post-emergence action against SETVI in % ([12]; dosage 20 g/ha): 80%; Post-emergence action against VERPE in % [13]: 90%
4 | Cn1nnnc1NC(=O)c1ccc(C(F)(F)F)c(C(=O)NCC(F)(F)F)c1Cl [Example 1-133] | 80 | 90 | 100 | 80 | 90 | 100 | 90 | 100 | 90 |  |  |  |  |  |  |  |  |  |  |  | pest or weed control at 80 g/ha [2]: 100%; pest or weed control at 20 g/ha ([5]; dosage 20 g/ha): 90%; pest or weed control at 20 g/ha ([19]; dosage 20 g/ha): 90%; pest or weed control at 80 g/ha ([19]; dosage 80 g/ha): 100%; pest or weed control at 5 g/ha ([20]; 5 g/ha): 90%; pest or weed control at 20 g/ha ([20]; 20 g/ha): 90%; pest or weed control at 80 g/ha ([17]; Setaria viridis, 504 h): 100%; pest or weed control at 20 g/ha [8]: 90%; pest or weed control at 80 g/ha [15]: 100%; pest or weed control at 20 g/ha ([16]; Viola tricolor, 504 h, dosage 20 g/ha): 100%; pest or weed control at 80 g/ha [16, 26]: 100%; pest or weed control at 80 g/ha [11]: 100%; pest or weed control at 5 g/ha ([12]; dosage 5 g/ha): 90%; pest or weed control at 20 g/ha ([12]; dosage 20 g/ha): 100%
5 | CSc1c(C(=O)Nc2nnnn2C)ccc(C(F)F)c1C(=O)NCC1CC1 [Example 1-90] |  |  |  |  |  |  |  |  |  | 100 | 80 | 100 | 100 | 90 | 100 | 80 | 100 | 100 | 90 | 100 | Post-emergence action against VIOTR in % ([1]; 5 g/ha): 80%; Pre-emergence action against MATIN in % ([5]; dosage 20 g/ha): 100%; Pre-emergence action against VERPE in % ([14]; dosage 80 g/ha): 90%; Pre-emergence action against SETVI in % [17]: 100%; Post-emergence action against MATIN in % [18]: 80%; Pre-emergence action against AMARE in % [7, 23]: 100%; Pre-emergence action against ABUTH (herbicidal activity in percent) ([15]; dosage 20 g/ha, scored visually after 3 weeks vs untreated controls, 100% = plants have died, 0% = like control plants): 100%; Post-emergence action against ABUTH in % ([10]; dosage 5 g/ha): 80%; Pre-emergence action against VIOTR in % ([16]; dosage 20 g/ha): 90%; Pre-emergence action against ECHCG in % [11]: 100%; Post-emergence action against SETVI in % ([12]; dosage 20 g/ha): 90%; Post-emergence action against VERPE in % [13]: 90%
6 | COCCNC(=O)c1c(C(F)F)ccc(C(=O)Nc2nnnn2C)c1C [Example 1-347] |  |  |  |  |  |  |  |  |  | 100 | 80 | 90 | 90 | 90 | 100 | 80 | 100 | 100 | 90 | 80 | Post-emergence action against VIOTR in % ([1]; 5 g/ha): 80%; Post-emergence action against PHBPU in % ([6]; dosage 5 g/ha): 90%; Post-emergence action against ABUTH in % ([10]; dosage 5 g/ha): 80%; Post-emergence action against VERPE in % [13]: 90%
